From patent EP0657455A1, “Epi-epibatidine derivatives, a process and intermediates for preparing them and epi-epibatidine and medicaments containing the epi-epibatidine derivatives and/or epi-epibatidine and the use of them” (priority 1993, dated 1995)
Where two headings read alike, the source gives them in different places.

Columns and labels:
NMRI male mice = test: Hot plate test in mice; assay type: in vivo; conditions: sc
Experimental: Hot plate test in mice Method
A modification of method of Eddy et al. (1953) Eddy, N. B., Leimback D.: Synthetic analgesics II. Dithienylbutenyl and dithienylbutylamines. J. Pharmacol. Exp. Ther. 107 /1953/, 385 to 393 was used. NMRI male mice (20 to 25 g body weight) were dropped on a hot plate (56.0 ± 0.5°C) and the latency time elapsed until licking the forepaws was measured. The compounds were administered subcutaneously and 15, 30, 45 and 60 minutes later the reaction time was measured again. Animals were regarded as positive if they produced at least twice 2.5-fold reaction time extension as related to their control values.

mice [1] = conditions: mouse, in vivo, sc, 5 mg/kg
mice [2] = test: Acetic acid induced writhing test in mice; assay type: in vivo
Experimental: Acetic acid induced writhing test in mice Method
Groups of 12 mice weighing 20 to 25 g were treated with 0.75% (v/v) acetic acid in a volume of 20 ml/kg administered intraperitoneally according to the method of Koster, R., Anderson, M., de Beer, E. J.: Acetic acid for analgesic screening, Fed. Proc. 18 [1959], 412. Between 5 and 10 minutes after the administration of acetic acid the total number of the typical "writhing" reactions was counted and expressed as percent inhibition compared to the concurrent controls. The test compounds were applied subcutaneously partly with a pretreatment period of 30 min. and partly without such. Statistical evaluation was performed by Student's t test and ID₅₀ values were determined by plotting the log-dose versus percentage response as compared to vehicle-treated animals. 10 mg/kg s.c. 17-(allyl)-4,5α-(epoxy)-3,14-di-(hydroxy)-morphinan-6-one {Naloxone} was administered 15 minutes before drug treatment.

[3] = Mus musculus, hot plate 56.0 ± 0.5°C, subcutaneous, reaction time at 15, 30, 45 and 60 minutes, positive = at least twice 2.5-fold reaction time extension, read-out: ED50

In the case of `Clc1ccc([C@H]2C[C@H]3CC[C@@H]2N3)cn1` (racemic) [Example 6, Epi-epibatidine], the ED50 (NMRI male mice; mouse, in vivo) is reported as 0.7 mg/kg s.c, the “analgesic potency, times stronger than that of codeine” value (NMRI male mice; mouse, in vivo) is reported as 13 times and the “analgesic potency, times stronger than that of morphine” value (NMRI male mice; mouse, in vivo) is reported as 4 times. The lethality in mice (mice [1]) was “does not destroy mice”, the “ID50 Pretreatment with 10 mg/kg naloxone s.c.” value (“ID50 Pretreatment” below) (mice [2]; mouse, in vivo) was 3.2 mg/kg s.c and the “ID50 Without pretreatment” value (mice [2]; mouse, in vivo) was 2.6 mg/kg s.c. The “antagonism of the antinociception by naloxone” value (mice [2]; mouse, in vivo) was “inactive”.
With `Fc1ccc([C@H]2C[C@H]3CC[C@@H]2N3)cc1` (racemic) [Example 12, (±)-endo-2β-[1'-(Fluoro)-phen-4'-yl]-7α-azabicyclo[2.2.1]heptane] the ED50 (NMRI male mice; [3]) was 2.1 mg/kg.
With `Clc1ccc([C@H]2C[C@H]3CC[C@@H]2N3)cc1` (racemic) [Example 19, (±)-endo-2β-[1'-(Chloro)-phen-4'-yl]-7α-azabicyclo[2.2.1]heptane] the ED50 (NMRI male mice; [3]) was 6.3 mg/kg.
Compound `COc1ccc([C@H]2C[C@H]3CC[C@@H]2N3)cn1` (racemic) [Example 26, (±)-endo-2β-[6'-(Methoxy)-pyrid-3'-yl]-7α-azabicyclo[2.2.1]heptane] has an ED50 (NMRI male mice; [3]) of 3.1 mg/kg.
`c1cncc([C@H]2C[C@H]3CC[C@@H]2N3)c1` (racemic) [Example 33, (±)-endo-2β-[Pyrid-3'-yl]-7α-azabicyclo[2.2.1]heptane] was tested, and the ED50 (NMRI male mice; [3]) was ~10 mg/kg.
`Clc1ccc([C@H]2C[C@H]3CC[C@@H]2N3)c(Cl)c1` (racemic) [Example 42, (±)-endo-2β-[1',3'-Di-(chloro)-phen-4'-yl]-7α-azabicyclo[2.2.1]heptane] was tested, and the ED50 (NMRI male mice; [3]) was 1.8 mg/kg.
Compound `COc1ccc([C@H]2C[C@H]3CC[C@@H]2N3)c(OC)c1` (racemic) [Example 48, (±)-endo-2β-[1',3'-Di-(methoxy)-phen-4'-yl]-7α-azabicyclo[2.2.1]heptane] has an ED50 (NMRI male mice; [3]) of 2.9 mg/kg.
`CCOc1ccc([C@H]2C[C@H]3CC[C@@H]2N3)cn1` (racemic) [Example 49, (±)-2β-[6'-(Ethoxy)-pyrid-3'-yl]-7α-azabicyclo[2.2.1]heptane] was tested, and the ED50 (NMRI male mice; [3]) was 3.5 mg/kg.
With `CN1CC[C@]23c4c5ccc(O)c4O[C@H]2[C@@H](O)C=C[C@H]3[C@H]1C5.Cl` [Reference substance A, Morphine-HCl] the “ID50 Pretreatment” value (mice [2]; mouse, in vivo) was 46.8 mg/kg s.c, the “ID50 Without pretreatment” value (mice [2]; mouse, in vivo) was 0.6 mg/kg s.c and the “increase of ID50 value in antinociception after naloxone pretreatment” value (mice [2]; mouse, in vivo) was “about 80 fold”.
`COc1ccc2c3c1O[C@H]1[C@@H](O)C=C[C@H]4[C@@H](C2)N(C)CC[C@@]341.Cl` [Reference substance B, Codeine-HCl] was tested, and the ED50 (NMRI male mice; [3]) was 9.4 mg/kg, the “ID50 Pretreatment” value (mice [2]; 0.75% (v/v) acetic acid i.p., naloxone 10 mg/kg s.c. 15 minutes before drug treatment) was 45.4 mg/kg s.c and the ED50 (mice [2]; Mus musculus, sc, 0.75% (v/v) acetic acid i.p., writhing counted between 5 and 10 minutes, no naloxone, read-out: ID50 Without pretreatment) was 9.9 mg/kg. The “increase of ID50 value in antinociception after naloxone pretreatment” value (mice [2]; naloxone 10 mg/kg s.c. for 15 minutes) was ~5 fold.
